# Measurements as given in PMC10464554 (Journal of Enzyme Inhibition and Medicinal Chemistry, 2023).
# Assays:
# SARS-CoV-2 [1] = settings: replication of SARS-CoV-2 in Vero E6 cells; cited from earlier work
# SARS-CoV-2 [2] = settings: Vero E6 cells, 72 h readout; cited from earlier work
# Nsp5 [3] = settings: irreversible inhibitor of Nsp5; cited from earlier work
# [4] = target: NT650-Nps5 (recombinant SARS-CoV-2 main protease Nsp5) (Severe acute respiratory syndrome coronavirus 2, UniProt P0DTD1); assay: biochemical; type: binding
# Nsp5 [5] = settings: cited from earlier work
# SARS-CoV-2 BA.5 strain = type: cell-based
# Vero E6 cells = settings: 200–0.1 µM, 24 h, MTT
smiles,measurement,setting,value
"O=c1c(O)c(-c2cc(O)c(O)c(O)c2)oc2cc(O)cc(O)c12 [Myricetin (2), myricetin]",EC50,SARS-CoV-2 [1],8000 nM
same,Antiviral SARS-CoV-2 activity (CPE inhibition),SARS-CoV-2 [2],devoid of antiviral SARS-CoV-2 activity
same,IC50,Nsp5 [3],630 ± 10 nM
"O=c1oc2c(O)c(O)cc3c(=O)oc4c(O)c(O)cc1c4c23 [Ellagic acid (7), ellagic acid]",Kd,[4],970 ± 140 nM
same,Binding Efficiency Index (BEI),[4]; BEI = pKd/MW (kDa),19.9
same,Dissociation constant (SPR),Nsp5 [5],low micromolar
"CC(C)(C)[C@H](NC(=O)C(F)(F)F)C(=O)N1C[C@H]2[C@@H]([C@H]1C(=O)N[C@H](C#N)C[C@@H]1CCNC1=O)C2(C)C [Nirmatrelvir (1), Nirmatrelvir]",Viral replication (supernatant viral titre),SARS-CoV-2 BA.5 strain,significantly reduce the number of infective particles
same,Cell viability (cytotoxic effect),Vero E6 cells,well-tolerated by Vero E6 cells at all the concentrations tested
